Consider 12 molecules from patent US6610710B2, “Phenylalanine derivatives” (Ajinomoto Co., Inc., priority 1999, dated 2003).

For this experiment, the target named is T1, integrin α4β7 (RPMI-8866 cells) binding with rat MAdCAM-1/human IgG1 chimera protein (Homo sapiens, UniProt P13612+P26010).
T1 construct: lymphoma cell strain RPMI-8866 of human B cells, known to express integrin α4β7; endogenous in cells; host or cells: RPMI-8866 (human B-cell lymphoma line)
T1 sequence (P13612 34-1032): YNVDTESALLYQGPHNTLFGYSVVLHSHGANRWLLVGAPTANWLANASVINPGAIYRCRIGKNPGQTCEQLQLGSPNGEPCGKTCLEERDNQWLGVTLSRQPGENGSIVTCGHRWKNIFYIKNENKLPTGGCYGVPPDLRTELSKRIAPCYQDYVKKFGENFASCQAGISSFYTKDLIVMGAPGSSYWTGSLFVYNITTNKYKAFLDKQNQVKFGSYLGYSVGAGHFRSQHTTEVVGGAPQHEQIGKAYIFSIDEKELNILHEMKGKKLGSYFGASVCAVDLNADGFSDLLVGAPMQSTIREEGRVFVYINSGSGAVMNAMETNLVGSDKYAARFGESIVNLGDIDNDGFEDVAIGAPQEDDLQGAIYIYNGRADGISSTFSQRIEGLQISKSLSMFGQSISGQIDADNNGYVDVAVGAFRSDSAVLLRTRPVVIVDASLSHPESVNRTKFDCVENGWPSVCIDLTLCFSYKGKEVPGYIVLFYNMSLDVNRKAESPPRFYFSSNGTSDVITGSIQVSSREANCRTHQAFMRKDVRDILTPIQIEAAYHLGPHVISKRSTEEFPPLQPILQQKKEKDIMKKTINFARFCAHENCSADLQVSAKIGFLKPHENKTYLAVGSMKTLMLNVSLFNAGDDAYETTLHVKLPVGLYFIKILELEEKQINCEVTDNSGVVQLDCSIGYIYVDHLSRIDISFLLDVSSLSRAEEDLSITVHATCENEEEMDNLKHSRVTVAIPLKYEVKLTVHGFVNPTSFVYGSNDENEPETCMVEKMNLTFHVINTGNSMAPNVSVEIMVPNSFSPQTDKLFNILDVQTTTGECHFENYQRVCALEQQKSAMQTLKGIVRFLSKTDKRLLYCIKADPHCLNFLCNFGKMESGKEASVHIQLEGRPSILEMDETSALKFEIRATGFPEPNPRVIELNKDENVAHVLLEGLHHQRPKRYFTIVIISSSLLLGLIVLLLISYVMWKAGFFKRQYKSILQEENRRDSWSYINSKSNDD
T1 sequence (P26010 20-798): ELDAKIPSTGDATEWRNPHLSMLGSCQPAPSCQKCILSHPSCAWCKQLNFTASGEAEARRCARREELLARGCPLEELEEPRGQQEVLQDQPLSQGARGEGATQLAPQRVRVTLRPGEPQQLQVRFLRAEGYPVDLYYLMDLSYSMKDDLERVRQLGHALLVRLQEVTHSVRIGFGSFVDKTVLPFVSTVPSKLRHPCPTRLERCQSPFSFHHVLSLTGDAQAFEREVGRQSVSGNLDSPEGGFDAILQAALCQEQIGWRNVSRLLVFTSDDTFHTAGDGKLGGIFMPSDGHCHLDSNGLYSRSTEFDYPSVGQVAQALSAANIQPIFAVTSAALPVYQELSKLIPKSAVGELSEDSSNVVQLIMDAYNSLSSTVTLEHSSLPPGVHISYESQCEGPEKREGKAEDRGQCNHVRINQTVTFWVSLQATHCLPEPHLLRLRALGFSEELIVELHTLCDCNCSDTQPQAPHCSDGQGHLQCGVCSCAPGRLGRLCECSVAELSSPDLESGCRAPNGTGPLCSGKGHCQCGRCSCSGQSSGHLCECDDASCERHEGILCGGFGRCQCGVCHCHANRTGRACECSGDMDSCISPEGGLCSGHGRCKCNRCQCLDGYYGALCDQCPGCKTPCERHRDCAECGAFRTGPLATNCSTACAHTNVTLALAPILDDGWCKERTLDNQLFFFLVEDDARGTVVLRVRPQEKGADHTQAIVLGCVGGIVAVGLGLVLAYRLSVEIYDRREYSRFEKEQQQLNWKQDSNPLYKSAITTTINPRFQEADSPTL
Description: Rat MAdCAM-1 antagonistic activity (rat MAdCAM-1/α4β7 binding assay), RPMI-8866 cell adhesion. The format is cell-based. Particulars: 4 mM MnCl2, read-out: MadCAM/α 4 β 7 antagonistic activity to integrin (IC50). How it is done: (Test Example) Rat MAdCAM-1 Antagonistic Activity (rat MAdCAM-1/α4β7 Binding Assay):
The capacity of a test substance antagonistic to the binding of lymphoma cell strain RPMI-8866 of human B cells, known to express integrin α4β7, with rat MAdCAM-1/human IgG1 chimera protein was determined.
100 μl/well of human IgG1 antibody (SIGMA #I-6260) diluted with buffer A to 1/1,000 concentration was added to a micro titer plate having 96 wells. After the incubation at 4° C. overnight, the plate was washed with PBS once. 100 μl/well of rat MAdCAM-1/human IgG1 chimera protein solution diluted with a buffer (buffer C)obtained by diluting Block Ace® (Dainippon Pharmaceutical Co., Ltd.) with PBS to 1/10 concentration was added in an amount of 100 μl/well. After the incubation at 37° C. for 2 hours, unbound MAdCAM-1/IgG was removed by washing once with PBS. After completion of the washing, 150 μl/well of buffer B was added and the incubation was continued at room temperature for 1 hour. Buffer B was removed and then the plate was washed with PBS once.
RPMI-8866 cells were incubated in DMEM containing 10 μg/ml of Calcein-AM at 37° C. for 30 minutes to label them with fluorescence. The cells were again suspended in a binding buffer containing 4 mM of MnCl2.
50 μl of a test substance of various concentrations obtained by the dilution with the binding buffer was added to the plate. Immediately thereafter, 50 μl (final volume: 100 μl/well) of the fluorescent RPMI-8866 cells (4×10^6 cells/ml ) were added thereto, and they were incubated at room temperature for 30 minutes. After the shaking on a plate shaker (IKA MTS-4) at 800 rpm for 30 seconds, the solution was immediately removed to remove the unbound cells. The fluorescence quantity of the bound cells remaining in the wells was determined with a fluorescent plate reader (Wallac 1420 ARVO multi-label counter). The fluorescent strength thus obtained is proportional to the number of RPMI-8866 cells bound to MAdCAM-1 and remaining on the plate. The binding rate of each test material in various concentrations was determined while the fluorescent strength of the test material-free well was determined to be 100%. The concentration IC50 for the 50% binding inhibition was calculated.
For the molecule `COc1cccc(NNC(=O)[C@H]2CC[C@H](C(=O)N[C@@H](Cc3ccc(OCc4c(Cl)cccc4Cl)cc3)C(=O)O)CC2)c1` [Example 44], the IC50 is 200 to 1000 nM.
Regarding `O=C(Nc1ccc(C[C@H](NC(=O)[C@H]2CC[C@H](C(=O)O)CC2)C(=O)O)cc1)c1snnc1-c1ccccc1` [Example 45, N-(Trans-4-carboxycyclohexane-1-carbonyl)-4-{[(4-phenyl-1,2,3-thiadiazole-5-yl)carbonyl]amino}-L-phenylalanine], the IC50 is 1000 to 5000 nM.
As for `COc1ccc(NNC(=O)[C@H]2CC[C@H](C(=O)N[C@@H](Cc3ccc(OCc4c(Cl)cccc4Cl)cc3)C(=O)O)CC2)cc1` [Example 14], the figure is 200 to 1000 nM.
For the molecule `COc1cccc(OC)c1-c1ccc(C[C@H](NC(=O)[C@H]2CC[C@H](C(=O)O)CC2)C(=O)O)cc1` [Example 50, N-(Trans-4-carboxycyclohexane-1-carbonyl)-4-(2,6-dimethoxyphenyl)-L-phenylalanine], the IC50 is 1000 to 5000 nM.
For `COc1ccc(NNC(=O)[C@H]2CC[C@H](C(=O)N[C@@H](Cc3ccc(NC(=O)c4snnc4-c4ccccc4)cc3)C(=O)O)CC2)cc1` [Example 46, N-[Trans-4-(4-methoxyphenylhydrazinocarbonyl)cyclohexane-1-carbonyl]-4-{[(4-phenyl-1,2,3-thiadiazole-5-yl)carbonyl]amino}-L-phenyl-alanine] the value was 1000 to 5000 nM.
As for `COc1ccc(NNC(=O)[C@H]2CC[C@H](C(=O)N[C@@H](Cc3ccc(-c4c(OC)cccc4OC)cc3)C(=O)O)CC2)cc1` [Example 51, N-[Trans-4-(4-methoxyphenylhydrazinocarbonyl)cyclohexane-1-carbonyl]-4-(2,6-dimethoxyphenyl)-L-phenylalanine], the IC50 lay in the range of 200 to 1000 nM.
With `O=C(O)[C@H](Cc1ccc(OCc2c(Cl)cccc2Cl)cc1)NC(=O)[C@H]1CC[C@H](C(=O)NNc2ccc(OC(F)(F)F)cc2)CC1` [Example 35], the IC50 is 1000 to 5000 nM.
For `O=C(O)[C@H](Cc1ccc(OCc2c(Cl)cccc2Cl)cc1)NC(=O)[C@H]1CC[C@H](C(=O)NCc2ccccc2)CC1` [Example 6] the value was 1000 to 5000 nM; for `O=C(O)[C@H](Cc1ccc(OCc2c(Cl)cccc2Cl)cc1)NC(=O)[C@H]1CC[C@H](C(=O)NNc2ccccc2)CC1` [Example 3, N-(Trans-4-phenylhydrazinocarbonylcyclohexane-1-carbonyl)-O-(2,6-dichlorobenzyl)-L-tyrosine], 200 to 1000 nM; for `O=C(O)[C@H](Cc1ccc(OCc2c(Cl)cccc2Cl)cc1)NC(=O)[C@H]1CC[C@H](C(=O)O)CC1` [Example 2, N-(Trans-4-carboxycyclohexane-1-carbonyl)-O-(2,6-dichlorobenzyl)-L-tyrosine], at most 200 nM.
As for `O=C(O)[C@H](Cc1ccc(OCc2c(Cl)cccc2Cl)cc1)NC(=O)[C@H]1CC[C@H](C(=O)NNc2ccc(Br)cc2)CC1` [Example 4, N-[Trans-4-(4-bromophenylhydrazinocarbonyl)cyclohexane-1-carbonyl]-O-(2,6-dichlorobenzyl)-L-tyrosine], the figure is 200 to 1000 nM.
For `Cc1ccc(NNC(=O)[C@H]2CC[C@H](C(=O)N[C@@H](Cc3ccc(OCc4c(Cl)cccc4Cl)cc3)C(=O)O)CC2)cc1` [Example 34] the value was 200 to 1000 nM.
